How the values were obtained:
Format in all cases: in vivo
[1] = tested on: Italian ryegrass (Lolium multiflorum); assay: Test B pre-/postemergence plant response
Outline: (§1)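 Visually scored on a 0 to 100 scale after 13 to 15 days in greenhouse versus controls. Treatments were preemergence on seeded loam/sand soil and postemergence on 1- to 4-leaf plants.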

[2] = tested on: bermudagrass (Cynodon dactylon); assay: Test B pre-/postemergence plant response
Outline: as §1

[3] = tested on: galium (catchweed bedstraw, Galium aparine); assay: Test B pre-/postemergence plant response; settings: Preemergence; for Galium plant response rating: 125 g ai/ha
Outline: as §1

[4] = tested on: lambsquarters (Chenopodium album); assay: Test B pre-/postemergence plant response
Outline: as §1

[5] = tested on: nightshade (eastern black nightshade, Solanum ptycanthum); assay: Test B pre-/postemergence plant response; settings: Preemergence; for Nightshade plant response rating: 125 g ai/ha
Outline: as §1

[6] = tested on: pigweed (Amaranthus retroflexus); assay: Test B pre-/postemergence plant response
Outline: as §1

[7] = tested on: ragweed (common ragweed, Ambrosia elatior); assay: Test B pre-/postemergence plant response
Outline: as §1

[8] = tested on: sunflower (common oilseed sunflower, Helianthus annuus); assay: Test B pre-/postemergence plant response; settings: Preemergence; for Sunflower plant response rating: 125 g ai/ha
Outline: as §1

[9] = tested on: wheat (Triticum aestivum); assay: Test B pre-/postemergence plant response
Outline: as §1

[10] = tested on: canarygrass (Phalaris minor); assay: Test B postemergence plant response; settings: for Canarygrass plant response rating: 250 g ai/ha, scale 0 to 100
Outline: (§2)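 Plants grown in peat/vermiculite medium were sprayed postemergence at 2–18 cm height (1- to 4-leaf stage). After 13–15 days in the greenhouse, response was rated visually against untreated controls on a 0–100 scale (0 no effect, 100 complete control).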

[11] = tested on: chickweed (Stellaria media); assay: Test B postemergence plant response; settings: for Chickweed plant response rating: 250 g ai/ha, scale 0 to 100
Outline: as §2

[12] = tested on: windgrass (Apera spica-venti); assay: Test B postemergence plant response
Outline: as §2

[13] = tested on: winter barley (Hordeum vulgare); assay: Test B postemergence plant response; settings: for Barley plant response rating: 250 g ai/ha, scale 0 to 100
Outline: as §2

[14] = tested on: goosegrass (Eleusine indica); assay: Test B pre-/postemergence plant response; settings: Preemergence, 62 g ai/ha; scale 0 to 100, 0 no effect, 100 complete control
[15] = 250 g ai/ha, Preemergence, 0 to 100 scale
[16] = Postemergence, 62 g ai/ha, scale 0 (no effect) to 100 (complete control), 13 to 15 days
[17] = Postemergence, 125 g ai/ha, visual rating after 13 to 15 days, scale 0 (no effect) to 100 (complete control)
[18] = Preemergence, 31 g ai/ha, scale 0 to 100 (0 no effect, 100 complete control)
[19] = Preemergence, 125 g ai/ha, 0 to 100 scale
[20] = Postemergence, 31 g ai/ha, scale 0 to 100 (0 no effect, 100 complete control)
[21] = Postemergence, 250 g ai/ha, scale 0 to 100
[22] = Preemergence, 62 g ai/ha, scale 0 to 100, 0 no effect, 100 complete control
[23] = 31 g ai/ha, scale 0 to 100 (0 no effect, 100 complete control)
[24] = 62 g ai/ha, scale 0 to 100, 0 no effect, 100 complete control
[25] = 31 g ai/ha, postemergence, scale 0 to 100, 0 is no effect, 100 is complete control

## Cc1cc(F)ccc1-n1c(-c2ccccc2)ncc(C(=O)C2=C(O)CCCC2=O)c1=O [Compound 48]
[1]; [15]
  Plant response rating, Ryegrass, Italian: 0
[1]; [16]
  Plant response rating, Ryegrass, Italian: 5
[1]; [17]
  Plant response rating, Ryegrass, Italian: 30
[1]; [18]
  Plant response rating, Ryegrass, Italian: 0
[1]; [19]
  Ryegrass, Italian plant response rating: 0
[2]; [15]
  Plant response rating, Bermudagrass: 100
[2]; [20]
  Plant response rating, Bermudagrass: 85
[2]; [16]
  Plant response rating, Bermudagrass: 95
[2]; [17]
  Plant response rating, Bermudagrass: 98
[2]; [21]
  Bermudagrass plant response rating: 100
[2]; [18]
  Plant response rating, Bermudagrass: 100
[2]; [22]
  Plant response rating, Bermudagrass: 100
[2]; [19]
  Bermudagrass plant response rating: 100
[3]; 250 g ai/ha, 0 to 100 scale
  Plant response rating, Galium: 70
[3]; [23]
  Plant response rating, Galium: 0
[3]; [24]
  Plant response rating, Galium: 60
[3]; 0 to 100 scale
  Galium plant response rating: 60
[4]; [15]
  Plant response rating, Lambsquarters: 100
[4]; [16]
  Plant response rating, Lambsquarters: 95
[4]; [17]
  Plant response rating, Lambsquarters: 100
[4]; [21]
  Lambsquarters plant response rating: 100
[4]; [18]
  Plant response rating, Lambsquarters: 100
[4]; [22]
  Plant response rating, Lambsquarters: 100
[4]; [19]
  Lambsquarters plant response rating: 100
[5]; 250 g ai/ha, 0 to 100 scale
  Plant response rating, Nightshade: 100
[5]; [23]
  Plant response rating, Nightshade: 100
[5]; [24]
  Plant response rating, Nightshade: 100
[5]; 0 to 100 scale
  Nightshade plant response rating: 100
[6]; [15]
  Plant response rating, Pigweed: 100
[6]; [16]
  Plant response rating, Pigweed: 85
[6]; [17]
  Plant response rating, Pigweed: 100
[6]; [18]
  Plant response rating, Pigweed: 100
[6]; [19]
  Pigweed plant response rating: 100
[7]; [15]
  Plant response rating, Ragweed: 95
[7]; [16]
  Plant response rating, Ragweed: 85
[7]; [17]
  Plant response rating, Ragweed: 90
[7]; [18]
  Plant response rating, Ragweed: 65
[7]; [19]
  Ragweed plant response rating: 90
[8]; 250 g ai/ha, 0 to 100 scale
  Plant response rating, Sunflower: 80
[8]; [23]
  Plant response rating, Sunflower: 0
[8]; 0 to 100 scale
  Sunflower plant response rating: 80
[9]; [15]
  Plant response rating, Wheat: 0
[9]; [16]
  Plant response rating, Wheat: 0
[9]; [17]
  Plant response rating, Wheat: 10
[9]; [18]
  Plant response rating, Wheat: 0
[9]; [19]
  Wheat plant response rating: 0
[10]; [20]
  Plant response rating, Canarygrass: 30
[10]; [16]
  Plant response rating, Canarygrass: 30
[10]; [17]
  Plant response rating, Canarygrass: 45
[10]; Postemergence
  Canarygrass plant response rating: 45
[11]; [20]
  Plant response rating, Chickweed: 85
[11]; [16]
  Plant response rating, Chickweed: 90
[11]; [17]
  Plant response rating, Chickweed: 95
[11]; Postemergence
  Chickweed plant response rating: 100
[12]; [16]
  Plant response rating, Windgrass: 80
[12]; [17]
  Plant response rating, Windgrass: 90
[13]; [20]
  Plant response rating, Barley: 5
[13]; [16]
  Plant response rating, Barley: 5
[13]; [17]
  Plant response rating, Barley: 10
[13]; Postemergence
  Barley plant response rating: 10
[14]
  Plant response rating, Goosegrass: 100

## CCn1c(-c2ccccc2)ncc(C(=O)C2=C(O)CCCC2=O)c1=O [Compound 49]
[1]; [25]
  Plant response rating, Ryegrass, Italian: 0
[1]; [15]
  Plant response rating, Ryegrass, Italian: 5
[1]; [16]
  Plant response rating, Ryegrass, Italian: 0
[1]; [17]
  Plant response rating, Ryegrass, Italian: 0
[1]; [18]
  Plant response rating, Ryegrass, Italian: 0
[1]; [19]
  Ryegrass, Italian plant response rating: 0
[2]; [25]
  Plant response rating, Bermudagrass: 75
[2]; [15]
  Plant response rating, Bermudagrass: 100
[2]; [16]
  Plant response rating, Bermudagrass: 85
[2]; [17]
  Plant response rating, Bermudagrass: 95
[2]; [21]
  Bermudagrass plant response rating: 98
[2]; [19]
  Bermudagrass plant response rating: 98
[3]; 250 g ai/ha, 0 to 100 scale
  Plant response rating, Galium: 95
[3]; [23]
  Plant response rating, Galium: 0
[3]; [24]
  Plant response rating, Galium: 80
[3]; 0 to 100 scale
  Galium plant response rating: 90
[4]; [25]
  Plant response rating, Lambsquarters: 70
[4]; [15]
  Plant response rating, Lambsquarters: 98
[4]; [16]
  Plant response rating, Lambsquarters: 80
[4]; [17]
  Plant response rating, Lambsquarters: 90
[4]; [21]
  Lambsquarters plant response rating: 98
[4]; [18]
  Plant response rating, Lambsquarters: 95
[4]; [22]
  Plant response rating, Lambsquarters: 95
[4]; [19]
  Lambsquarters plant response rating: 98
[5]; 250 g ai/ha, 0 to 100 scale
  Plant response rating, Nightshade: 98
[5]; [23]
  Plant response rating, Nightshade: 98
[5]; [24]
  Plant response rating, Nightshade: 98
[5]; 0 to 100 scale
  Nightshade plant response rating: 98
[6]; [25]
  Plant response rating, Pigweed: 80
[6]; [15]
  Plant response rating, Pigweed: 100
[6]; [16]
  Plant response rating, Pigweed: 90
[6]; [17]
  Plant response rating, Pigweed: 95
[6]; [18]
  Plant response rating, Pigweed: 100
[6]; [19]
  Pigweed plant response rating: 100
[7]; [25]
  Plant response rating, Ragweed: 75
[7]; [15]
  Plant response rating, Ragweed: 95
[7]; [16]
  Plant response rating, Ragweed: 80
[7]; [17]
  Plant response rating, Ragweed: 80
[7]; [18]
  Plant response rating, Ragweed: 70
[7]; [19]
  Ragweed plant response rating: 80
[8]; 250 g ai/ha, 0 to 100 scale
  Plant response rating, Sunflower: 75
[8]; [23]
  Plant response rating, Sunflower: 60
[8]; 0 to 100 scale
  Sunflower plant response rating: 75
[9]; [25]
  Plant response rating, Wheat: 0
[9]; [15]
  Plant response rating, Wheat: 0
[9]; [16]
  Plant response rating, Wheat: 5
[9]; [17]
  Plant response rating, Wheat: 15
[9]; [18]
  Plant response rating, Wheat: 0
[9]; [19]
  Wheat plant response rating: 0
[10]; [25]
  Plant response rating, Canarygrass: 0
[10]; [16]
  Plant response rating, Canarygrass: 0
[10]; [17]
  Plant response rating, Canarygrass: 0
[10]; Postemergence
  Canarygrass plant response rating: 0
[11]; [25]
  Plant response rating, Chickweed: 75
[11]; [16]
  Plant response rating, Chickweed: 75
[11]; [17]
  Plant response rating, Chickweed: 80
[11]; Postemergence
  Chickweed plant response rating: 90
[12]; [25]
  Plant response rating, Windgrass: 0
[12]; [16]
  Plant response rating, Windgrass: 0
[12]; [17]
  Plant response rating, Windgrass: 5
[13]; [25]
  Plant response rating, Barley: 0
[13]; [16]
  Plant response rating, Barley: 0
[13]; [17]
  Plant response rating, Barley: 0
[13]; Postemergence
  Barley plant response rating: 0
[14]
  Plant response rating, Goosegrass: 95
